Read-outs that look alike come from different tables or passages of the source.
Experiments:
Type in all cases: biochemical
MMP 9 = target: T1, MMP 9 (Homo sapiens, UniProt P14780); assay: In Vitro Gelatinase Assay; conditions: human neutrophil gelatinase B; for IC50: read-out: MMP 9 IC 50; for inhibition at 1 µM: read-out: MMP 9 % inhibition at 1 micromolar
T1 construct: from tissue; host or cells: human neutrophils
Procedure, shortened: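 Human MMP-9 cleaves thiopeptide Ac-Pro-Leu-Gly(2-mercapto-4-methyl-pentanoyl)-Leu-Gly-OEt, with the released thiol reacting with DTNB. Substrate and DTNB were diluted together to 1 mM in 50 mM HEPES pH 7.5, 5 mM CaCl2. Rate came from the OD405 slope (r^2 >0.85), compared with control by Dunnett's test.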

MMP 1 = target: T2, MMP 1 (Homo sapiens, UniProt P03956); assay: In Vitro Collagenase Assay; conditions: human recombinant fibroblast collagenase; for IC50: read-out: MMP 1 IC 50; for inhibition at 1 µM: read-out: MMP 1 % inhibition at 1 micromolar
T2 construct: human recombinant fibroblast collagenase (truncated, mw= 18,828, WAR, Radnor)
T2 sequence (P03956 100-269 limits assumed): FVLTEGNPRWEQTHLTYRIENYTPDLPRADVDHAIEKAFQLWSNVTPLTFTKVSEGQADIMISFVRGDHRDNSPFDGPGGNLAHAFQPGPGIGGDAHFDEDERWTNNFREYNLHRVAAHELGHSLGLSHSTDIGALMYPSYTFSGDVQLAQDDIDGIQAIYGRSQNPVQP
Procedure, shortened: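 Collagenase (5 nM final) cleaves the quenched fluorogenic peptide Dnp-Pro-Cha-Gly-Cys(Me)-His-Ala-Lys(NMa)-NH2 (10 µM final) in HCBC buffer. Solvent is below 1.0%, and the reaction is started with substrate. Rate is taken from the fluorescence slope (r^2 >0.85), and drug-treated rates are compared with control by Dunnett's test.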

TACE = target: T3, TACE (Homo sapiens, UniProt P78536); assay: Procedure for Measuring TACE Inhibition; conditions: for IC50: read-out: TACE IC 50; for inhibition at 1 µM: read-out: TACE % inhibition at 1 micromolar
T3 construct: purchased Immunex
Procedure, shortened: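 Single-concentration screen: test compound at 1 µM final, 10-min room-temperature preincubation with 1 µg/mL protease in Tris pH 7.4 buffer containing glycerol. Initial rate from linear fluorescence increase (340/420 nm) over 10 min after adding 100 µM peptidyl substrate; significance versus control rate by Dunnett's test.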

MMP 13 = MMP 13 (Homo sapiens, UniProt P45452); assay: MMP 13 inhibition (IC50 / manual assay; method not described); conditions: for inhibition at 1 µM: read-out: MMP 13 % inhibition at 1 micromolar

T1 sequence (P14780 94-707): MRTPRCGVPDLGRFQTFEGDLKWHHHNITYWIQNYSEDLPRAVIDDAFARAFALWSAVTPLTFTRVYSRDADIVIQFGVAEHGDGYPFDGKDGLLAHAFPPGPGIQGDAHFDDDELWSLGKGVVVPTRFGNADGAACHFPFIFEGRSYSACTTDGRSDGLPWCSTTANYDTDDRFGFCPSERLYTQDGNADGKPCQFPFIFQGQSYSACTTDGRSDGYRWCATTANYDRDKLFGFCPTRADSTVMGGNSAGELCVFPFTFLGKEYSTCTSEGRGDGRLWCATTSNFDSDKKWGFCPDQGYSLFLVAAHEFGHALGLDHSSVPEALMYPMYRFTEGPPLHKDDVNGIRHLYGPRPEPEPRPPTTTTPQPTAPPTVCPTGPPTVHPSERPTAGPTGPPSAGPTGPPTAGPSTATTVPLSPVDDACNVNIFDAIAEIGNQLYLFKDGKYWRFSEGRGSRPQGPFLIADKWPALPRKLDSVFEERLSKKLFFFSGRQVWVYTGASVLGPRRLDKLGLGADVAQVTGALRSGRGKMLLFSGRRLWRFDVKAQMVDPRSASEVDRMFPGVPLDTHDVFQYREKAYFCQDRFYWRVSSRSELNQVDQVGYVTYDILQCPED
T3 sequence (P78536 215-824): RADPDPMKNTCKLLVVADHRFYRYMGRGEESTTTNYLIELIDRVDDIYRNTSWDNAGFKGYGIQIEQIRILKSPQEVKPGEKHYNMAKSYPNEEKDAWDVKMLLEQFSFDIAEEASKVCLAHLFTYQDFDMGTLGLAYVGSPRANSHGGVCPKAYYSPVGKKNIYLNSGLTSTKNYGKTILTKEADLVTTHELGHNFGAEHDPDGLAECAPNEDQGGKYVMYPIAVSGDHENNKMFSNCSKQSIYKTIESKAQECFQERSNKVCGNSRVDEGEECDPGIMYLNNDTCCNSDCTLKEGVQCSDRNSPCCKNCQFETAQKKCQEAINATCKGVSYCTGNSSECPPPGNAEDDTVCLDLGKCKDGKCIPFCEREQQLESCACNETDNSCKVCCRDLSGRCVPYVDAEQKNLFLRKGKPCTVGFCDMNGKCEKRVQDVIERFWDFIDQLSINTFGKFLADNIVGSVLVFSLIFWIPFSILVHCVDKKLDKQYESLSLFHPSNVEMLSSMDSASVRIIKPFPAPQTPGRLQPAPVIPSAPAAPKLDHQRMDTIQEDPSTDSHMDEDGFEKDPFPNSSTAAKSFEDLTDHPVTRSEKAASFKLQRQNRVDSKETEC

SMILES | IC50 (MMP 9) [nM] | IC50 (MMP 1) [nM] | IC50 (TACE) [nM] | IC50 (MMP 13; read-out: MMP 13 IC 50) [nM] | inhibition at 1 µM (TACE) [%] | also measured
COc1ccc(S(=O)(=O)C2(C(=O)NO)CCN(CCOc3ccccc3)CC2)cc1 [Example 107, 4-(4-methoxy-benzenesulfonyl)-1-(2-phenoxy-ethyl)-piperidine-4-carboxylic acid hydroxyamide] | 26.8 | 629 | 293 | 2.5 |  | 
COc1ccc(CCN2CCC(C(=O)NO)(S(=O)(=O)c3ccc(OC)cc3)CC2)cc1 [Example 102, 4-(4-methoxy-benzenesulfonyl)-1-[2-(4-methoxyphenyl)-ethyl]-piperidine-4-carboxylic acid hydroxyamide] | 33.7 | 662 |  |  | 53 | IC50 (MMP 13): 1.9 nM
Cc1occc1S(=O)(=O)C(C)(Cc1ccc(OCCN2CCCCC2)cc1)C(=O)NO (centres unmarked) [Example 44, 2-Methyl-2-(2-methyl-furan-3-sulfonyl)-3-[4-(2-piperidin-1-yl-ethoxy)-phenyl]-propionic acid hydroxamide] |  |  |  |  | 14.9 | inhibition at 1 µM (MMP 9; 1 micromolar): 36.9%; inhibition at 1 µM (MMP 1; 1 micromolar): 47.1%; inhibition at 1 µM (MMP 13): 39.5%
CCCCC[C@@H](C(=O)NO)[S@@+]([O-])c1ccc(OC)cc1 (stereo in doubt) [Example 81b, 2S*-(4-methoxy-phenyl-R*- sulfinyl)-heptanoic acid hydroxyamide] | 154 | 3760 | 228 | 15.7 |  | 
COc1ccc(S(=O)(=O)C(C)(Cc2ccc(OCCCN3CCN(c4cccc(Cl)c4)CC3)cc2)C(=O)NO)cc1 (centres unmarked) [Example 23, 3-(4-{3-[4-(3-Chloro-phenyl)-piperazin-1-yl]-propoxy}-phenyl)-N-hydroxy-2-(4-methoxy-benzenesulfonyl)-2-methyl-propionamide] | 7.9 | 593 |  | 4 | 40.6 | 
COc1ccc(S(=O)(=O)C2(C(=O)NO)CCN(Cc3cccc(OC)c3)CC2)cc1 [Example 84, 4-(4-methoxy-benzenesulfonyl)-1-(3-methoxy-benzyl)-piperidine-4-carboxylic acid hydroxyamide] | 8.8 | 519 | 213 | 2 |  | 
CCCCCCC(Cc1ccc(OCCN2CCCCCC2)cc1)(C(=O)NO)S(=O)(=O)c1ccc(OC)cc1 (centres unmarked) [Example 36, 2-[4-(2-Azepan-1-yl-ethoxy)-benzyl]-2-(4-Methoxy-benzenesulfonyl)-octanoic acid hydroxyamide] | 83.8 | 622 | 826 | 20.7 |  | 
COc1ccc(S(=O)(=O)C2(C(=O)NO)CCN(Cc3ccc(F)cc3)CC2)cc1 [Example 99, 1-(4-Fluoro-benzyl)-4-(4-methoxy-benzenesulfonyl)-piperidine-4-carboxylic acid hydroxyamide] | 16.2 | 656 | 250 | 2.4 |  | 
COc1ccc(S(=O)(=O)C2(C(=O)NO)CCN(Cc3ccc(Cl)c(Cl)c3)CC2)cc1 [Example 85, 1-(3,4-dichlorobenzyl) -4-(4-methoxy-benzenesulfonyl)-piperidine-4-carboxylic acid hydroxamide] | 5.8 | 450 | 115 | 1.5 |  | 
Cn1ccnc1S(=O)(=O)C(C)(Cc1ccc(-c2ccccc2)cc1)C(=O)NO (centres unmarked) [Example 47, 3-Biphenyl-4-yl-2-methyl-2-(1-methyl-1H-imidazole-2-sulfonyl)-propionic acid hydroxyamide] |  |  |  |  | 3.3 | inhibition at 1 µM (MMP 9; 1 micromolar): 12.9%; inhibition at 1 µM (MMP 1; 1 micromolar): 17.1%; inhibition at 1 µM (MMP 13): 7.12%
CCCCCC(Sc1ccc(OC)cc1)C(=O)NO (centres unmarked) [Example 80, 2-(4-methoxy-phenylsulfanyl)-heptanoic acid hydroxyamide] |  |  | 191 |  |  | inhibition at 1 µM (MMP 9; 1 micromolar): 26%; inhibition at 1 µM (MMP 1; 1 micromolar): 22.1%; inhibition at 1 µM (MMP 13): 63.6%
CCCCCCC(Sc1ccc(F)cc1)C(=O)NO (centres unmarked) [Example 38, 2-(4-Fluoro-phenylsulfanyl)-octanoic acid hydroxyamide] |  |  |  |  | 55.1 | inhibition at 1 µM (MMP 9; 1 micromolar): 1.7%; inhibition at 1 µM (MMP 1; 1 micromolar): 48.3%; inhibition at 1 µM (MMP 13): 5.8%
CCCCCCCCS(=O)(=O)C(Cc1ccc(OCCN2CCCCC2)cc1)C(=O)NO (centres unmarked) [Example 46, 2-(octane-1-sulfonyl)-3-[4-(2-piperidin-yl-ethoxy)-phenyl]propionic acid hydroxamide] |  |  |  |  |  | MMP 9 % inhibition at 1 micromolar (MMP 9; 1 micromolar): 79.12%; MMP 1 % inhibition at 1 micromolar (MMP 1; 1 micromolar): 78.9%; TACE % inhibition at 1 micromolar (TACE; 1 micromolar): 1.4%; MMP 13 % inhibition at 1 micromolar (MMP 13; 1 micromolar): 84.7%

The next lines start with results.

IC50 (MMP 9) [nM] | IC50 (MMP 1) [nM] | IC50 (TACE) [nM] | IC50 (MMP 13; read-out: MMP 13 IC 50) [nM] | inhibition at 1 µM (TACE) [%] | SMILES | also measured
15.2 | 162 | 688 | 5.7 |  | COc1ccc(S(=O)(=O)C(C)(CCCCN2C(=O)c3ccccc3C2=O)C(=O)NO)cc1 (centres unmarked) [Example 31, 6-(1,3-Dioxo-1,3-dihydro-isoindol-2-yl)-2-(4-methoxy-benzenesulfonyl)-2-methyl - hexanoic acid hydroxyamide] | 
9 | 325 | 180 | 24 |  | COc1ccc(S(=O)(=O)C(C)(CC2CCCCC2)C(=O)NO)cc1 (centres unmarked) [Example 16, 3-Cyclohexyl-N-hydroxy-2-(4-methoxy-benzenesulfonyl)-2-methyl-propionamide] | 
66 | 110 |  | 21 | 55.1 | COc1ccc(S(=O)(=O)C2(C(=O)NO)CCCC2)cc1 [Example 54, 1-(4-Methoxy-benzenesulfonyl)-cyclopentanecarboxylic acid hydroxyamide] | 
83.4 | 672 |  | 32.7 | 23.8 | C#CCC(Cc1cccnc1)(C(=O)NO)S(=O)(=O)c1ccc(OC)cc1 (centres unmarked) [Example 75, 2-(4-Methoxy-benzenesulfonyl)-2-pyridin-3-ylmethyl-pent-4-ynoic acid hydroxyamide] | 
63 | 1000 |  | 13 | 42.2 | CCCCCC#CCC(CC#CCCCCC)(C(=O)NO)S(=O)(=O)c1ccc(OC)cc1 [Example 71, 2-(4-methoxy-benzenesulfonyl)-2-oct-2-ynyl-dec-4-ynoic acid hydroxyamide] | 
131 | 1600 |  | 226 | 42.3 | COc1ccc(S(=O)(=O)C(Cc2cccnc2)(CC(C)C)C(=O)NO)cc1 (centres unmarked) [Example 66, 2-(4-Methoxy-benzenesulfonyl)-4-methyl-2-pyridin-3-ylmethyl-pentanoic acid hydroxyamide] | 
8.1 | 397 |  | 5.7 | 25.2 | COc1ccc(S(=O)(=O)C(C)(Cc2cccc(OCCN3CCOCC3)c2)C(=O)NO)cc1 (centres unmarked) [Example 30, N-Hydroxy-2-(4-methoxy-benzenesulfonyl)-2-methyl-3-[3-(2-morpholin-1-yl-ethoxy)-phenyl]-propionamide] | 
63 | 1000 |  | 13 | 42.2 | COc1ccc(S(=O)(=O)C(Cc2cccnc2)(CC2CCCCC2)C(=O)NO)cc1 (centres unmarked) [Example 65, 3-Cyclohexyl-N-hydroxy-2-(4-methoxy-benzenesulfonyl)-2-pyridin-3-ylmethyl-propionamide] | 
11 | 239 | 626 | 14 |  | COc1ccc(S(=O)(=O)C(C)(CC=C(C)C)C(=O)NO)cc1 (centres unmarked) [Example 13, 2-(4-Methoxy-benzenesulfonyl)-2,5-dimethyl-hex-4-enoic acid hydroxyamide] | 
 | 371 |  |  | 21 | COc1ccc(SC(C(=O)NO)C(C)C)cc1 (centres unmarked) [Example 4, N-Hydroxy-2-(4-methoxy-phenylsulfanyl)-3-methyl-butyramide] | inhibition at 1 µM (MMP 9; 1 micromolar): 22.2%; inhibition at 1 µM (MMP 13): 17.1%
9.2 | 138 |  | 4.3 | 47.9 | CCCCCC#CCC(Cc1cccnc1)(C(=O)NO)S(=O)(=O)c1ccc(OC)cc1 (centres unmarked) [Example 74, 2-(4-Methoxy-benzenesulfonyl)-2-pyridin-3-ylmethyl-dec-4-ynoic acid hydroxyamide] | 
21.4 | 267 |  | 15.6 | 40.4 | COc1ccc([S+]([O-])C(C)(CC=C(C)C)C(=O)NO)cc1 (centres unmarked) [Example 6, 2-(4-Methoxy-benzenesulfinyl)-2,5-dimethyl-hex-4-enoic acid hydroxyamide] | 
332 | 258 |  | 191 | 16.6 | COc1ccc(S(=O)(=O)C(CCCc2ccccc2)(CCCc2ccccc2)C(=O)NO)cc1 [Example 57, 2-(4-methoxy-benzenesulfonyl)-5-phenyl-2-(3-phenyl-propyl)-pentanoic acid hydroxyamide] | 

Source: EP0970046B1, “N-HYDROXY-2-(ALKYL, ARYL, OR HETEROARYL SULFANYL, SULFINYL OR SULFONYL)-3-SUBSTITUTED ALKYL, ARYL OR HETEROARYLAMIDES AS MATRIX METALLOPROTEINASE INHIBITORS” (Wyeth Holdings Corporation, priority 1997, dated 1998)
